These results are taken from ChEMBL document CHEMBL1153804, “Optimization of a series of quinazolinone-derived antagonists of CXCR3” (Bioorg Med Chem Lett, 2009).

Each structure is given as a SMILES string.

In series [1] the target is T1, C-X-C chemokine receptor type 3 (Homo sapiens, UniProt P49682).
T1 sequence (P49682 whole entry): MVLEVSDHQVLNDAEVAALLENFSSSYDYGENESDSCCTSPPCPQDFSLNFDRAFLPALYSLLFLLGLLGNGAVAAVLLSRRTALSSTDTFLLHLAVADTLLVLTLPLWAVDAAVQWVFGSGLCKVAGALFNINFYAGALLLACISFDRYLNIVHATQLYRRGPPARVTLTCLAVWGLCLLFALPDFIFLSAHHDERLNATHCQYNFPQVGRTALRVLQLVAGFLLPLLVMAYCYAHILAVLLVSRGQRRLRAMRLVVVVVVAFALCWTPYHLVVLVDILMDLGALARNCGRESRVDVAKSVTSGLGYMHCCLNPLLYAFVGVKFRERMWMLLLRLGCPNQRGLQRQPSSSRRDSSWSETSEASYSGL
The experiment in a line: Displacement of [125I]-1P10 from human CXCR3 expressed in PBMC after 2 hrs in RPMI buffer by scintillation counting.

For series [2], the target named is T1, C-X-C chemokine receptor type 3. The experiment in a line: Displacement of [125I]-ITAC from human CXCR3 expressed in human PBMC after 2 hrs in RPMI buffer by scintillation counting. Background: In a radioligand displacement assay an active substance lowers the binding of a labelled ligand.
A short description of series [3]: Clearance in rat at 0.5 mg/kg, iv. The class given is ADME, organism-based. On the set-up: dose 0.5 mg/kg, route intravenous. The following applies: in vivo.
Series [4] can be described thus: Clearance in mouse at 0.5 mg/kg, iv. In kind it is ADME, organism-based. On the set-up: dose 0.5 mg/kg, route intravenous. The following applies: in vivo.
Series [5] can be described thus: Clearance in dog at 1 mg/kg, iv. To be noted: in vivo. Set-up: dose 1 mg/kg, route intravenous. The class given is ADME, organism-based, Canis lupus familiaris.
Series [6] in a line: Clearance in cynomolgus monkey at 1 mg/kg, iv. The class given is ADME, organism-based, Macaca fascicularis. On the set-up: dose 1 mg/kg, route intravenous. The following applies: in vivo.
Series [7] in a line: Mean residence time in mouse at 0.5 mg/kg, iv. The class given is ADME, organism-based. Set-up: dose 0.5 mg/kg, route intravenous. The following applies: in vivo.
Series [8] is described as follows: Mean residence time in dog at 1 mg/kg, iv. The class given is ADME, organism-based, Canis lupus familiaris. Set-up: dose 1 mg/kg, route intravenous. The following applies: in vivo.
The nature of series [9]: Volume of distribution at steady state in mouse at 0.5 mg/kg, iv. In kind it is ADME, organism-based. Set-up: dose 0.5 mg/kg, route intravenous. To be noted: in vivo, read-out: Vdss.
The nature of series [10]: Volume of distribution at steady state in dog at 1 mg/kg, iv. On the set-up: dose 1 mg/kg, route intravenous. To be noted: in vivo, read-out: Vdss. The class given is ADME, organism-based, Canis lupus familiaris.
Series [11] is described as follows: Oral bioavailability in rat at 2 mg/kg. The class given is ADME, organism-based. The following applies: in vivo.
A further series deals with T2, Cytochrome P450 1A2 (Homo sapiens, UniProt P05177).
T2 sequence (P05177 whole entry): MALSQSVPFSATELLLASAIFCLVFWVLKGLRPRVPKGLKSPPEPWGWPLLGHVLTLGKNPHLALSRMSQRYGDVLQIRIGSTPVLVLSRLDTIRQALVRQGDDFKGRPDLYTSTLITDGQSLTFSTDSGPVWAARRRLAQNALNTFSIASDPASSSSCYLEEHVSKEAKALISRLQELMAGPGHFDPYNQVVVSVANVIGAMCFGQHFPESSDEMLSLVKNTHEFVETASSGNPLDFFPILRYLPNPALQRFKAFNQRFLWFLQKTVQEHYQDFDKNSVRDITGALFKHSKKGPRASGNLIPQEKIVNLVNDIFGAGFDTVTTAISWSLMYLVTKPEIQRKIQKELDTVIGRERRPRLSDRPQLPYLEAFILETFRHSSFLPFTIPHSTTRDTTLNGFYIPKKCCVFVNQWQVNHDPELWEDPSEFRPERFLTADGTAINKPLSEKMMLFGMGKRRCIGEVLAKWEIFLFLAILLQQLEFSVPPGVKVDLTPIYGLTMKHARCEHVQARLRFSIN
In words: Inhibition of CYP1A2. The class given is ADME.

The next series deals with Cytochrome P450 2D6 (Homo sapiens, UniProt P10635). In words: Inhibition of CYP2D6. The class given is ADME.
A further series deals with Blood. The experiment in a line: Drug level in bleomycin-induced mouse blood at 0.1 mg/mL, sc. The class given is ADME, tissue-based.

Cytochrome P450 2D6, sequence (P10635 whole entry): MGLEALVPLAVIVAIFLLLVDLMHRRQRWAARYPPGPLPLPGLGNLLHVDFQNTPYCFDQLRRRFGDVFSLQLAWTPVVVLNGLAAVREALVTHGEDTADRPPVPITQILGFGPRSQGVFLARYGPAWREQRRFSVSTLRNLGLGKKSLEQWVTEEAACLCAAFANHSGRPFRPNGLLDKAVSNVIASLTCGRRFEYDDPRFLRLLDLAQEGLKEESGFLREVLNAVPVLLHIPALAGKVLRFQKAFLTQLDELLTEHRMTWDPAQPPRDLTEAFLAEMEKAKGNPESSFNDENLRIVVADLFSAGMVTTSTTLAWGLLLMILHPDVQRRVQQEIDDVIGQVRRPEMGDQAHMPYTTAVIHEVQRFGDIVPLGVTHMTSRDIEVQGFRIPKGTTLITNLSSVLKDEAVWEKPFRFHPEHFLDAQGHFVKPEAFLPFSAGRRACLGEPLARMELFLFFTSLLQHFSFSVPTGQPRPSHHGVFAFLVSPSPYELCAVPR

For orientation: IC50 means the point on the concentration scale where inhibition reaches its midpoint. In general, clearance refers to a measure of how efficiently the substance is removed, as volume per time. The MRT is a mean duration of stay, worked out from the concentration-time curve. Broadly, the bioavailability is the share of a dose that reaches the circulation, judged against a reference dose that is usually intravenous. Turning to `CCS(=O)(=O)CCN(C(=O)Cc1ccc(F)c(C(F)(F)F)c1)[C@H](C)c1nc2ncccc2c(=O)n1-c1ccc(OCC(F)(F)F)cc1`, the IC50 in [1] and in series [2] was 1 nM throughout. Besides, the clearance was 65 mL/min/kg in series [3], 13 mL/min/kg in series [4], 7.5 mL/min/kg in series [5] and 14.5 mL/min/kg in [6]. The results for the mean residence time (MRT) in series [7] and in series [8] were 1.1 h and 2.5 h, respectively. For the same compound, the Vd in series [9] stood at 0.8 L/kg; in series [10] it was 1.1 L/kg. The compound further displayed a bioavailability in series [11] of 26%. Besides, the result at Cytochrome P450 1A2 and on Cytochrome P450 2D6 was Active. This compound also had a Drug uptake in the series with Blood of 2 ng/mL.
